As a reminder, the IC50 is the concentration that gives 50% inhibition.

The structures appear in SMILES notation.

This passage reports IC50 results from paper PMC4377976, “Bioactive Isopimarane Diterpenes from the Fungus, Epicoccum sp. HS-1, Associated with Apostichopus japonicus” (Marine Drugs, 2015).

The test has as its target α-glucosidase. As to the kind of experiment: p-nitrophenyl glycoside hydrolysis assay, absorbance at […] nm. It is filed as biochemical.
Take `Oc1ccc(/C=C/c2cc(O)cc(O)c2)cc1` [Resveratrol, reference compound]: the half-maximal inhibitory concentration (IC50) was determined as 31.2 ± 4.4 µM.
With `C=C[C@]1(C)C=C2[C@@H](O)[C@@]3(O)OC[C@@]4(CCCC(C)(C)[C@@]43O)[C@@]2(O)CC1` [compound 2, 11-deoxydiaporthein A] the figure was 11.9 ± 0.4 µM.
As for `C=C[C@@]1(C)C[C@@H](O)C2=C(C(=O)[C@@]3(O)OC[C@@]24CCCC(C)(C)[C@@]43O)[C@H]1OC` [compound 1, Isopimarane diterpene (1)], the IC50 was 4.6 ± 0.1 µM.
